Active and inactive are the calls of the source.
How the values were obtained:
[1] = biological target: T1, Neuropeptide Y receptor type 1 (Homo sapiens, UniProt P25929); assay: IC50 of human NPY-Y1 blockers – cell-based, dose response (AID 1277); assay type: functional
T1 sequence (P25929 whole entry): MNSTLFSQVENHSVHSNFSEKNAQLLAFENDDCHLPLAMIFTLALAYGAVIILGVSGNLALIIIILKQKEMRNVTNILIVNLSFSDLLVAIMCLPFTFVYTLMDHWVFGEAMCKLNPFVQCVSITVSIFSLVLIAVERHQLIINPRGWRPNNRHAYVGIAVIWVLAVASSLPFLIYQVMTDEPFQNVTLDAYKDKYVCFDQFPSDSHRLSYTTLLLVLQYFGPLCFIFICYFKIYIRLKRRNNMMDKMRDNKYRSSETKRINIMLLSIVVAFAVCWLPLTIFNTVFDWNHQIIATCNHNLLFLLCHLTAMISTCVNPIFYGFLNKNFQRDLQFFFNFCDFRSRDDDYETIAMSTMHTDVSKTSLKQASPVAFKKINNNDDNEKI

[2] = biological target: T2, Neuropeptide Y receptor type 2 (Homo sapiens, UniProt P49146); assay: IC50 for human NPY-Y2 blockade – cell-based, counter-screen for NPY-Y1 antagonist project, dose response (AID 1278); assay type: functional
T2 sequence (P49146 whole entry): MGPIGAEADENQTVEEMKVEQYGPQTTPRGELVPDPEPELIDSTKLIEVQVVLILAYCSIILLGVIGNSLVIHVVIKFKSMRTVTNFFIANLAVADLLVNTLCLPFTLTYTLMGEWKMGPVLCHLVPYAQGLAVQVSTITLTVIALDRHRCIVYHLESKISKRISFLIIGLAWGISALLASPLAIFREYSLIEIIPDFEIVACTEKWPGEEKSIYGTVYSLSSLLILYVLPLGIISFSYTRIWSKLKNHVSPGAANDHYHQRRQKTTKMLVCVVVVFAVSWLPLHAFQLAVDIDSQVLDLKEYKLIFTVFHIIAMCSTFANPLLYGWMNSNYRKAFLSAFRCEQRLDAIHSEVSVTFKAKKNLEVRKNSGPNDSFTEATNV

Cytochrome P450 1A2 = biological target: T3, Cytochrome P450 1A2 (Homo sapiens, UniProt P05177);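 further: PubChem cytochrome P450 panel assay, CYP1A2 panel member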
T3 sequence (P05177 whole entry): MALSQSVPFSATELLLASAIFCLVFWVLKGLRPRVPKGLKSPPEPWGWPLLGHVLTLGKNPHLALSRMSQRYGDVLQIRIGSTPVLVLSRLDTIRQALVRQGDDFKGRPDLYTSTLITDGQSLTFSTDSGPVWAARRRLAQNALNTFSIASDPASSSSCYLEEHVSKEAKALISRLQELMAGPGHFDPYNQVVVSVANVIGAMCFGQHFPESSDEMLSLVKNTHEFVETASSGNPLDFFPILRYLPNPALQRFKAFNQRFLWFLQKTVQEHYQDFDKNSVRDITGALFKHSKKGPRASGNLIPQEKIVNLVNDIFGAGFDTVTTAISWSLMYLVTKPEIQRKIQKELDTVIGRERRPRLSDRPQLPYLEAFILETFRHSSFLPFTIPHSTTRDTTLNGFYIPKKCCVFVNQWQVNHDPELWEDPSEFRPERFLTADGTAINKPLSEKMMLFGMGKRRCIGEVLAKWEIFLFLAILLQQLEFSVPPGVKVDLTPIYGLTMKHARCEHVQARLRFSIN

[3] = HPDE-C7 pancreatic duct cell viability loss – fluorescence, HTS (AID 430); assay type: functional, cell-based; settings: Homo sapiens
[4] = viability loss of HPDE-C7K cells – cell-based, fluorescence, HTS, primary screen (AID 431); assay type: functional; settings: Homo sapiens
[5] = biological target: Luciferin 4-monooxygenase (Photinus pyralis, UniProt P08659); assay: Counter Screen for Luciferase-based Assay Positives. [Related pubchem assays: 620, 618, 411 ]
Chain of Luciferin 4-monooxygenase (P08659 whole entry): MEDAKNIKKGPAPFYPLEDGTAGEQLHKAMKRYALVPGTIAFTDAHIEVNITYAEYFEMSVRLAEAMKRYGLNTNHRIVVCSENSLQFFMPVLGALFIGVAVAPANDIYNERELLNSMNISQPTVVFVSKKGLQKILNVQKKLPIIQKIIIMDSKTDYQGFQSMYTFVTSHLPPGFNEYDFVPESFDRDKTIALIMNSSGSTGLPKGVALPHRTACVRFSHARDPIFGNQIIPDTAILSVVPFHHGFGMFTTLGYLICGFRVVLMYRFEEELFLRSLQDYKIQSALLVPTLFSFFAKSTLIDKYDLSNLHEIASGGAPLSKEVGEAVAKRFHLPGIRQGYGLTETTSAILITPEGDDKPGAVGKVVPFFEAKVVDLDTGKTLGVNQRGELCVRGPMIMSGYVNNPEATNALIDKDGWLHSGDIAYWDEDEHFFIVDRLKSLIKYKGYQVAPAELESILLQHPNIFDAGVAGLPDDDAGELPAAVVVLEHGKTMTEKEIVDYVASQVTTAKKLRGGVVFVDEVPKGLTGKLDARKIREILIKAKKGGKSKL

HT-1080 = assay: HT1080 cell viability loss – fluorescence readout (AID 620); assay type: functional, cell-based; settings: Homo sapiens
[6] = biological target: T4, Dual specificity protein phosphatase 6 (Rattus norvegicus, UniProt Q64346); assay: inhibition of rat DUSP6 enzyme activity – biochemical, in vitro, primary screen (AID 425)
T4 sequence (Q64346 whole entry): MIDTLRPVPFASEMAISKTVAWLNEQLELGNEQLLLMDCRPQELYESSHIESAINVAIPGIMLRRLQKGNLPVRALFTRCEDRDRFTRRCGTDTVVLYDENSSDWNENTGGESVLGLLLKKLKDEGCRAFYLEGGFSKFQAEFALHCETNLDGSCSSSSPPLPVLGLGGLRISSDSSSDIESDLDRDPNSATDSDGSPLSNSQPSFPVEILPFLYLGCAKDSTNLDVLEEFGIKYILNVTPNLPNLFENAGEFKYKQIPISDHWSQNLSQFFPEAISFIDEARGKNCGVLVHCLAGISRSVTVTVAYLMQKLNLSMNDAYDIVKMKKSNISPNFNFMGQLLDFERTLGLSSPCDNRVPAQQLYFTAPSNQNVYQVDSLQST

Leucine aminopeptidase = biological target: T5, Leucine aminopeptidase (Plasmodium falciparum 3D7, UniProt Q8IL11); assay: P. falciparum M17LAP inhibitors, primary screen, biochemical, fluorogenic H-Leu-NHMec substrate, 1536-well (AID 1619); assay type: functional
T5 sequence (Q8IL11 whole entry): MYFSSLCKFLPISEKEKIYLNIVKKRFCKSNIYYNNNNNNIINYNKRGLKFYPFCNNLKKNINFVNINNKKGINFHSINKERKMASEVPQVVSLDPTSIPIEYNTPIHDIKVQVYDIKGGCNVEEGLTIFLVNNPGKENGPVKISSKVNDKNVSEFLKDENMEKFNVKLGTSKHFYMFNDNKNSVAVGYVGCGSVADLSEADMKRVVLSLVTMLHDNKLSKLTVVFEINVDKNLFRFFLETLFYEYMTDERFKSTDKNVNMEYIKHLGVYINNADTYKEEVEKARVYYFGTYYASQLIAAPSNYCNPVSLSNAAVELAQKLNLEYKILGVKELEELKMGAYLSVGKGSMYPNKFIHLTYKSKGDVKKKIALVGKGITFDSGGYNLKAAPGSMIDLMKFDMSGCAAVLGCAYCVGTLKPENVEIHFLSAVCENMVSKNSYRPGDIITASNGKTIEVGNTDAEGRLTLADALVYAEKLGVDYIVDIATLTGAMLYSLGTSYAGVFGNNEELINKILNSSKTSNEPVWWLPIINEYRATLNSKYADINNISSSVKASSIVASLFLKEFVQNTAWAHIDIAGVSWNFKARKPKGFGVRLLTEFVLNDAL

Cytochrome P450 2C19 = Cytochrome P450 2C19 (Homo sapiens, UniProt P33261); assay: Cytochrome panel assay with activity outcomes. Panel member name: p450-cyp2c19 Compounds with AC50 equal or less than 10 uM are considered active; assay type: functional; settings: read-out: AC50
Chain of Cytochrome P450 2C19 (P33261 whole entry): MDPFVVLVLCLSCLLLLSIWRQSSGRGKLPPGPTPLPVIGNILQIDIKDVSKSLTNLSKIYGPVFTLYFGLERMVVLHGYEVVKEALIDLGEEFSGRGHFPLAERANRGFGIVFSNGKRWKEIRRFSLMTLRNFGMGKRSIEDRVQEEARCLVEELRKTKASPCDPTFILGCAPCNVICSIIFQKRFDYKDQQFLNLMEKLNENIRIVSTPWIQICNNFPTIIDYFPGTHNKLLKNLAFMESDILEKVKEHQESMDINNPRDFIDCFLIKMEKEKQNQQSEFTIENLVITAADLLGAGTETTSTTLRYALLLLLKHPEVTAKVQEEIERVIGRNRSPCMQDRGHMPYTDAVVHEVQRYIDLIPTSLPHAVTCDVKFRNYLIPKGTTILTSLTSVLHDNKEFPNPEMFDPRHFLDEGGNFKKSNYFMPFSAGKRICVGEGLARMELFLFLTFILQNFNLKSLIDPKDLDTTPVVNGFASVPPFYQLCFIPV

[7] = NIH-3T3 fibroblast cytotoxicity, dose response, cytotoxicity control, cell-based, fluorescence, Alamar Blue, secondary assay (AID 2327); assay type: functional;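 further: NIH-3T3 mouse fibroblasts cultured with fluconazole at 8 µg/mL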
[8] = biological target: T6, Mannose-6-phosphate isomerase (Homo sapiens, UniProt P34949); assay: MPI enzyme activity inhibition – biochemical, fluorescence intensity, coupled assay, primary screen (AID 1209)
T6 sequence (P34949 whole entry): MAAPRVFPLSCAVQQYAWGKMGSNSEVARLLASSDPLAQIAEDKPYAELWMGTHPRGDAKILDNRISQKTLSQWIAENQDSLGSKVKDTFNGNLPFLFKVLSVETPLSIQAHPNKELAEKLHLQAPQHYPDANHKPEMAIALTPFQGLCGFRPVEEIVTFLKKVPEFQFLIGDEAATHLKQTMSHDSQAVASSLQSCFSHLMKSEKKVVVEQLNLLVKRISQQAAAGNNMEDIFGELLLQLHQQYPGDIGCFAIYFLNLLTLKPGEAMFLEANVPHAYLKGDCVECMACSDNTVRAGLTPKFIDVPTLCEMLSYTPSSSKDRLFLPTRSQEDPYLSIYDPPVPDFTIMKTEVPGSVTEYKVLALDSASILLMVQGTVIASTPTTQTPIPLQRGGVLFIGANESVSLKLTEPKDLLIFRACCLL

[9] = fluconazole-exposed Candida albicans growth modulators – fluorescence, retest, confirmation (AID 2467); assay type: functional, cell-based
Streptococcus = assay: GAS UMAA2166 growth inhibition – luminescence, BacTiterGlo, counter-screen for streptokinase expression inhibitor project, dose response (AID 1915); assay type: functional, organism-based;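 further: potency for reduction of bacterial viability or growth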
[10] = test system: Streptococcus sp. 'group A'; assay: Streptococcus pyogenes SK(-)GAS viability under kanamycin – luminescence, BacTiterGlo, confirmation, counter-screen for streptokinase expression inhibitor project, dose response (AID 1900); assay type: functional, organism-based
Streptokinase A = biological target: T7, Streptokinase A (Streptococcus pyogenes serotype M1, UniProt P10520); assay: viability-normalized secreted streptokinase activity reduction – plasminogen activation absorbance, OD405, dose response (AID 1914); assay type: functional, Streptococcus pyogenes M1 GAS;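 further: secreted streptokinase activity via plasminogen activation per viability signal from cell pellet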
T7 sequence (P10520 whole entry): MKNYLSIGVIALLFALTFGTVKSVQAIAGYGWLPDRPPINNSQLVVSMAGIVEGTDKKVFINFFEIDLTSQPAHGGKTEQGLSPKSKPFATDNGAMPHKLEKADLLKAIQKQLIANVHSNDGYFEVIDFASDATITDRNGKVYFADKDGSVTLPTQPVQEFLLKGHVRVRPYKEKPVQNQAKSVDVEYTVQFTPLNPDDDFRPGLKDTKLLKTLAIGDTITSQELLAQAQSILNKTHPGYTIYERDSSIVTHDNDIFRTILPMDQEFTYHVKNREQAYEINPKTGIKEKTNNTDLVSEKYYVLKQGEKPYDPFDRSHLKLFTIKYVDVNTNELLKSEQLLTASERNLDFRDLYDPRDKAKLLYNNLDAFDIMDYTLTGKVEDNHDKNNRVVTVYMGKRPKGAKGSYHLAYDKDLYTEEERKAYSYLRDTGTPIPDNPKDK

[11] = M. tuberculosis H37Rv growth inhibitors, H37Rv strain (AID 1626); assay type: functional
[12] = Luminescence Cell-Based Dose Retest to Confirm Inhibitors of Cancer Stem Cells. [Related pubchem assays (depositor defined):AID2717, AID2721]; assay type: functional; settings: Homo sapiens
[13] = toxicity toward HepG2 liver cells – cell-based, plate reader, cherry-pick, antagonist series, cytotoxicity control, dose response (AID 743416); assay type: functional
[14] = blockade of melanocortin 4 receptor signaling – cell-based, plate reader, cherry pick, counter-screen for LGR2 antagonist project, dose response (AID 743444); assay type: functional;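 further: transfected HEK 293 cells stimulated with alpha-MSH peptide; potency of inhibitors of the alpha-MSH evoked signal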
[15] = viability loss in HEK293 cells – cell-based, plate reader, cherry-picked samples, cytotoxicity control, dose response (AID 743446); assay type: functional
[16] = blockers of bursicon-stimulated LGR2 cAMP reporter – cell-based, HEK293, CRE-luciferase reporter, cherry pick, set 2, dose response (AID 743343); assay type: functional;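 further: transfected cells were stimulated with diluted bursicon conditioned medium after compound addition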
[17] = A549 cell cytotoxicity, dose response, cytotoxicity control, plate reader, cherry-pick, antagonist series (AID 743412); assay type: functional, cell-based
[18] = biological target: T6, Mannose-6-phosphate isomerase; assay: MPI inhibition at elevated mannose 6-phosphate – biochemical, fluorescence intensity, high mannose 6-phosphate, primary screen (AID 1220)

COc1ccc([N+](=O)[O-])cc1N(CC(O)CN(CC(C)C)CC(C)C)S(=O)(=O)c1ccccc1 (centres undefined)
IC50 [1]: > 35 µM (not active)
IC50 [2]: > 35 µM (not active)
AC50 (Cytochrome P450 1A2): 11.2 µM (inconclusive)

O=C1CC(c2ccc3c(c2)OCO3)c2cc3c(cc2N1)OCCO3 (centres undefined)
EC50 [3]: > 20 µM (not active)
EC50 [4]: > 20 µM (not active)

COC(=O)c1ccc(-c2nc(-c3cccs3)no2)cc1
EC50 [5]: 0.76 µM (active)
EC50 (HT-1080): > 50 µM (not active)

O=C(c1cc(-c2cccc(O)c2)on1)N1CCCCC1
EC50 [5]: 0.64 µM (active)
EC50 (HT-1080): > 50 µM (not active)

O=C(CN(Cc1ccco1)C(=O)CNS(=O)(=O)c1ccc(F)cc1)NCCc1ccccc1
IC50 [6]: > 100 µM (not active)

COC(=O)c1ccc(NC(=O)C2CCCCC2C(=O)O)cc1 (centres undefined)
IC50 (Leucine aminopeptidase): 13.5 µM (active)
AC50 (Cytochrome P450 2C19): 0.0398 µM (inconclusive)

N=C1/C(=C\c2ccc(SCc3ccccc3)o2)C(=O)N=C2SC=NN12
EC50 [7]: > 150 µM (inactive)
IC50 [8]: > 50 µM (not active)
EC50 [9]: 5.72 µM (active)

Cc1cc2cc(C)c(NCCNC(=O)c3cccc(F)c3)nc2cc1C
IC50 [1]: 3.39 µM (active)
IC50 [2]: 4.44 µM (active)

COc1ccc(N2CCN(C(c3cccc(OC)c3OC)c3nnnn3C3CCCC3)CC2)cc1 (centres undefined)
IC50 [1]: > 35 µM (not active)
IC50 [2]: > 35 µM (not active)

c1ccc(-c2cc3c(NCC4COc5ccccc5O4)ncnc3s2)cc1 (centres undefined)
EC50 (Streptococcus): 21.7 µM (active)
EC50 [10]: 3 µM (active)
EC50 (Streptokinase A): 3.29 µM (active)
IC50 [11]: > 100 µM (active)
AC50 [12]: 3.96 µM (active)

Cc1sc(NC(=O)C2C3C=CC(C3)C2C(=O)O)c(C(N)=O)c1-c1ccc(C(C)C)cc1 (centres undefined)
EC50 (Streptococcus): > 150 µM (not active)
EC50 [10]: 32.1 µM (active)
EC50 (Streptokinase A): 32.2 µM (active)
IC50 (Leucine aminopeptidase): 4.99 µM (active)

COc1ccc(NC2(C#N)CCCCC2)cc1
IC50 [11]: > 100 µM (active)

Cc1cc(=O)oc2ccc(OC(=O)CC(C)C)cc12
IC50 [11]: > 100 µM (active)

O=S(=O)(CCSc1nc2ccccc2o1)c1nc2ccccc2s1
EC50 [3]: 4.88 µM (active)
AC50 [13]: 5.74 µM (active)
AC50 [14]: 1.8 µM (active)
AC50 [15]: 6.8 µM (active)
EC50 [4]: 5.33 µM (active)
AC50 [16]: 2.43 µM (active)
AC50 [17]: 44.4 µM (active)

COc1ccc2c(c1)C(C)=CC(C)(C)N2C(=O)Nc1ccccc1
IC50 [18]: > 50 µM (not active)
IC50 [8]: > 50 µM (not active)

Reference: ChEMBL document CHEMBL1201862, “PubChem BioAssay data set” (2004)
